The text below walks through data of ChEMBL document CHEMBL1201862, “PubChem BioAssay data set” (2004).

The nature of test [1]: antiviral protection against BTV-induced cell death – arbovirus, BSR cells, confirmation (AID 1250).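 Also: protection from viral cytopathic effect measured as cell viability by ATP luminescence.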 Type of test: functional.
A further test concerns the target Mucolipin-3 (Homo sapiens, UniProt Q8TDD5). The test is described as follows: Dose response cell-based high-throughput screening assay for agonists of the transient receptor potential channel ML3 (TRPML3). [Related pubchem assays: 1526, 1424, 1448 ]. In kind it is functional.
The next test deals with Ion channel NompC (Danio rerio, UniProt Q7T1G6). The test is described as follows: Fluorescence counterscreen assay for TRPML3 agonists: dose response cell-based high-throughput screening assay to identify agonists of the transient receptor potential channel N1 (TRPN1). [Related pubchem assays: 1526, 1424, 1448 ]. Type of test: functional.
The target of the next test is Vasopressin V1a receptor (Homo sapiens, UniProt P37288). The test is described as follows: Fluorescence-based cell-based high throughput dose response screening assay for agonists of the vasopressin 1 receptor (V1R). Type of test: functional.
The target in the next test is Oxytocin receptor (Homo sapiens, UniProt P30559). The test is described as follows: Counterscreen for vasopressin 1 receptor (V1R) agonists: Fluorescence-based cell-based high throughput dose response assay for agonists of the Oxytocin Receptor (OXTR). [Related pubchem assays: 2435 (Primary screen (OXTR agonists in singlicate)), 434964 (Confirmation screen (V1R agonists in triplicate)), 434969 (Counterscreen (OXTR agonists in …. Type of test: functional. On the technique in general: The purpose of a counterscreen is to sort out artefacts and off-target activity.

The target of test [2] is Inward rectifier potassium channel 2 (Mus musculus, UniProt P35561). The test is described as follows: Manual electrophysiological patch clamp assay for SAR compounds that inhibit/block inward-rectifying potassium ion channel Kir2.1. [Related pubchem assays: 1843 (Summary assay for Kir2.1 inhibitor assays.), 1672 (Primary HTS of 305616 compounds where 2592 were identified as active.)]. In kind it is functional.

Another test deals with Bcl-2-like protein 1 (Homo sapiens, UniProt Q07817). The test is described as follows: blockers of BCLXL peptide binding – biochemical, fluorescence polarization, 1536-well, selectivity assay for MCL1 inhibitor project, dose response (AID 2218).
The target in test [3] is Induced myeloid leukemia cell differentiation protein Mcl-1 (Homo sapiens, UniProt Q07820). The test is described as follows: blockers of MCL1 binding to BIM peptide – biochemical, fluorescence polarization, BIM-BH3 peptide, 1536-well, dose response (AID 2217). On the technique in general: In fluorescence polarisation assays a small probe gives low polarisation when free and higher when bound to something large.

A further test relates to Danio rerio. The test is described as follows: In Vivo Angiogenesis Dose-Response Confirmation. [Related pubchem assays: 732 (Assay preceding this confirmatory assay.)]. In kind it is functional, organism-based.

Structures are written as SMILES. Active and inactive are the calls of the source. Unless noted, the rule behind the calls is not given here.

As a reminder, the IC50 is the concentration that gives 50% inhibition. For orientation: EC50 means the concentration needed to bring the measured effect to its halfway point.

Chain of Bcl-2-like protein 1 (Q07817 whole entry): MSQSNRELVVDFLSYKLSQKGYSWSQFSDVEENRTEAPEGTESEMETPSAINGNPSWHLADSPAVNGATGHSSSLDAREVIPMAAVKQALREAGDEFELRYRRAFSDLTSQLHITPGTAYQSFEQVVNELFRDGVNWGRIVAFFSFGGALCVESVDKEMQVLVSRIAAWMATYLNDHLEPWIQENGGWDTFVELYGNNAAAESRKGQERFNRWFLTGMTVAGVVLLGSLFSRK
Chain of Induced myeloid leukemia cell differentiation protein Mcl-1 (Q07820 whole entry): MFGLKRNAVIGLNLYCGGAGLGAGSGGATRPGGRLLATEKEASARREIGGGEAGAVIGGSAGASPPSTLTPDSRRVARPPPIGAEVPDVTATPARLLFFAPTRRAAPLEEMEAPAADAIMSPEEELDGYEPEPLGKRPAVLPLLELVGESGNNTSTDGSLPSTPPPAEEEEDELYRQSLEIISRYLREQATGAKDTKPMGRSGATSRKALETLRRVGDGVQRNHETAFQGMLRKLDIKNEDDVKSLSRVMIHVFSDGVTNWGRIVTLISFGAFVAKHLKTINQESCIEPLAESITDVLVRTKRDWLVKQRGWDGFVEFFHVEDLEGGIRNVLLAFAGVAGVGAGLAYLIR
Chain of Ion channel NompC (Q7T1G6 whole entry): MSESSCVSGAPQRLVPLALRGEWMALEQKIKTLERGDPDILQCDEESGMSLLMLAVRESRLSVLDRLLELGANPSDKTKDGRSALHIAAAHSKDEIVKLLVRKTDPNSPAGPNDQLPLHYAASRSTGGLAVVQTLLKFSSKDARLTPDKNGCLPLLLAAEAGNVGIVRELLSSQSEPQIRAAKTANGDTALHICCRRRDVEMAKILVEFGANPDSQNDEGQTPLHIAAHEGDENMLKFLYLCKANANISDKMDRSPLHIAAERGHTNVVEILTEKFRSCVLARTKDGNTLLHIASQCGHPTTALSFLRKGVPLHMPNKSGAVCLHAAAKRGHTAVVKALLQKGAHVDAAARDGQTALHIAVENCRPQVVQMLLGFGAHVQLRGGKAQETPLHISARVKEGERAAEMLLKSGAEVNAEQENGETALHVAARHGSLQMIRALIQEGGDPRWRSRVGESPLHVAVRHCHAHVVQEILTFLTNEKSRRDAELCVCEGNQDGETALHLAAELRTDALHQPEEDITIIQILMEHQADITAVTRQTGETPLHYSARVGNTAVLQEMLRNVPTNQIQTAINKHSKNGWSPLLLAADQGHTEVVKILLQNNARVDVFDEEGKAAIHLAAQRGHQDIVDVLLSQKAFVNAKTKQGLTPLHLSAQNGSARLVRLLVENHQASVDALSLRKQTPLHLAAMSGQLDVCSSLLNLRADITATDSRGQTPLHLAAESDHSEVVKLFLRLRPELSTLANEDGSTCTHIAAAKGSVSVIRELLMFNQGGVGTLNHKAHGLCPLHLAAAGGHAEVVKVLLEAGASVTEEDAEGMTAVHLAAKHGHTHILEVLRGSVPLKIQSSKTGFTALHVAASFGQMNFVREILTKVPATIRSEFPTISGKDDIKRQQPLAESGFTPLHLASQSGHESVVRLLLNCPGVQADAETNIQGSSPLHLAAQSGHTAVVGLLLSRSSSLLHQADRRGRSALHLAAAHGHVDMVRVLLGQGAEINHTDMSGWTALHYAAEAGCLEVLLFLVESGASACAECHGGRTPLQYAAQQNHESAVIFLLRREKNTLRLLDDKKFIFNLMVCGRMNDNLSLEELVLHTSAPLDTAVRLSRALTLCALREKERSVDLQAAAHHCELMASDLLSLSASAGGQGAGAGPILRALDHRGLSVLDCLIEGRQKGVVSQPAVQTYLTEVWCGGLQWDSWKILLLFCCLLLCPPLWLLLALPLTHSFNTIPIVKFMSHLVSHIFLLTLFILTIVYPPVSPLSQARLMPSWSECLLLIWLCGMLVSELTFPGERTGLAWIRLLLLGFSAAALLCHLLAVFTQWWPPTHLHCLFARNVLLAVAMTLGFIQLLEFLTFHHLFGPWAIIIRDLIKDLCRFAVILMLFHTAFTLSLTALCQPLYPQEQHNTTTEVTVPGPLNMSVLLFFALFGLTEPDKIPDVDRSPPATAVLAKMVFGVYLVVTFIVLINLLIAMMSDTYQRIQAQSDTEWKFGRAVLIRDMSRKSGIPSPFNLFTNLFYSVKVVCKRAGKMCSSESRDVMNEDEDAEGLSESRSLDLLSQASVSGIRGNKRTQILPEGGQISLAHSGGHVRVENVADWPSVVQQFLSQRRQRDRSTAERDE
Chain of Inward rectifier potassium channel 2 (P35561 whole entry): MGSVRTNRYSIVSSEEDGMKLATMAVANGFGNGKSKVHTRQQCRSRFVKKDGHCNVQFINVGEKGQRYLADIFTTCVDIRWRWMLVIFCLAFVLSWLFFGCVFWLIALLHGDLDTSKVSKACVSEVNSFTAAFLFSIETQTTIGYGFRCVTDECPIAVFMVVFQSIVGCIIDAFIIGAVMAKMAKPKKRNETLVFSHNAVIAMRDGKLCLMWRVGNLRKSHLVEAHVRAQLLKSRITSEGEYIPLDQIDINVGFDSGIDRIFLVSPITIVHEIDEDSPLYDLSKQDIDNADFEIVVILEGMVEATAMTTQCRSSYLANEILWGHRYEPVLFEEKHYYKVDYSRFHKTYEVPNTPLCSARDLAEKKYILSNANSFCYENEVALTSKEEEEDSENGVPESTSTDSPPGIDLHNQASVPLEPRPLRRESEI
Chain of Vasopressin V1a receptor (P37288 whole entry): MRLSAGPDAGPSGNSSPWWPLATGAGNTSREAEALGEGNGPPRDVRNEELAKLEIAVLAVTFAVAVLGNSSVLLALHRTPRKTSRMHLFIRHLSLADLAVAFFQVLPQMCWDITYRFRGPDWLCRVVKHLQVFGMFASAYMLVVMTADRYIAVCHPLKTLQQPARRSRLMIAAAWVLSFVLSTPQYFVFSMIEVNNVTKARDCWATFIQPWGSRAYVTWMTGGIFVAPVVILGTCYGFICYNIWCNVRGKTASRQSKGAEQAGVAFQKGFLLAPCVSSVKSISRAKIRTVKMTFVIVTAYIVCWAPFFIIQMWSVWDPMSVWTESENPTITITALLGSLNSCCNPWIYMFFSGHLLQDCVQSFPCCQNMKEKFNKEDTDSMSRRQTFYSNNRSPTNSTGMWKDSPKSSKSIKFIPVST
Chain of Mucolipin-3 (Q8TDD5 whole entry): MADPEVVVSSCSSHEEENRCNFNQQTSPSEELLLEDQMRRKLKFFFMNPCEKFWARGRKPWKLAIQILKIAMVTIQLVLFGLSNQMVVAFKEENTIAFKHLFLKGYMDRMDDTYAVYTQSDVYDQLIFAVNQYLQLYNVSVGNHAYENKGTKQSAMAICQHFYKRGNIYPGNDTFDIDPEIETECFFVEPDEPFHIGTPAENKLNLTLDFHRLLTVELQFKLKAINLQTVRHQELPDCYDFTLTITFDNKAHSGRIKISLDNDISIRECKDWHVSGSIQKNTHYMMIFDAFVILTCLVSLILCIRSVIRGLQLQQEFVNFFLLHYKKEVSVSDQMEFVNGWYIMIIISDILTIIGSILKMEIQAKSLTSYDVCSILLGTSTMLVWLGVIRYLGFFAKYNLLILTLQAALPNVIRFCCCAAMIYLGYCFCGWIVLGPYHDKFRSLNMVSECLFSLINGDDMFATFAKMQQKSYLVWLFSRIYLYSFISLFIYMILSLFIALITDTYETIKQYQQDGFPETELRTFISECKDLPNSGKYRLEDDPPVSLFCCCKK
Chain of Oxytocin receptor (P30559 whole entry): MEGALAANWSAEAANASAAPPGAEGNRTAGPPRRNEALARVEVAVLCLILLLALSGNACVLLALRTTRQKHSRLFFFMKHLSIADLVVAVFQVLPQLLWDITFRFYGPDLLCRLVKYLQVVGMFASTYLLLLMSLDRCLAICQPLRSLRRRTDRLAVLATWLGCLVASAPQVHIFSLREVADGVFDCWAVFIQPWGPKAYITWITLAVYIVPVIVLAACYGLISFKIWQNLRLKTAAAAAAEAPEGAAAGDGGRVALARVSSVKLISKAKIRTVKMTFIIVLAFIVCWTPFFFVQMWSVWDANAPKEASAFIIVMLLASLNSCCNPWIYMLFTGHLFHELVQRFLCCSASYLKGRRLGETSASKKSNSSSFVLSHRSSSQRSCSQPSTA

Take `CCNC(=O)NC(=O)C(C)Sc1nc2cc(C(=O)OC)ccc2c(=O)n1-c1ccccc1` (centres undefined): the IC50 in test [1] was 28.9 µM (active).

Regarding `CCC(C(=O)Nc1cc(C)nn1-c1nc(C)cc(C)n1)c1ccccc1` (centres undefined), the EC50 on Mucolipin-3 and on Ion channel NompC was > 29.9 µM (not active) each time.

Take `CC(NC(=O)Nc1ccc(Cl)c(Cl)c1)C(c1ccccc1)N1CCOCC1` (centres undefined): the EC50 at Vasopressin V1a receptor is 6.23 µM (active); on Oxytocin receptor, > 29.9 µM (not active).

As for `COc1ccc(CNCc2ccc(C(C)(C)C)cc2)cc1`, the IC50 in test [2] is 1.27 µM (active).

For `CCOC(=O)C[C@H]1c2ccc(C(F)(F)F)cc2S(=O)(=O)N1c1cccc(OC)c1`, the IC50 (on Bcl-2-like protein 1; in test [3]) was > 109 µM (not active) each time.

Turning to `Cc1cccc2c1NC(=O)/C2=C1\Nc2ccc(Br)cc2\C1=N/O`, in the test with Danio rerio, the IC50 is recorded as 4.01 µM (not active).
